From patent US6884589B2, “Model for myeloid cell growth, differentiation and disease” (Regents of the University of California, priority 2000, dated 2005)

Key:
Format in all cases: cell-based, murine
Settings in all cases: 10 μM atRA for 4 days
parental ECoM-G cells = assay: atRA treatment of parental ECoM-G cells
[1] = system: PML/RARα ECoM-G derivatives; assay: atRA treatment of ECoM-G clones arrested in differentiation by PML/RARα
Protocol: (§1) Retroviral infection of ECoM-G cells with heterologous oncoproteins. Helper-free retrovirus was generated for wild-type E2a-Pbx1, Hoxa7, Hoxa9, Nup98/HoxA9, Hoxb8, AML1/ETO, PML/RARα and PLZF/RARα constructs cloned into the multiple cloning site of the MSCVneo and MSCVpac retroviral vectors. ECoM-G cells (250,000) from 3 different clones were transduced by spinoculation (as described above) and selected 5 days in G418 (1 mg/ml) or puromycin (1 μg/ml). The cells were washed and plated in media without estrogen. Only those cells that were capable of continued and indefinite proliferation in the absence of estrogen were expanded to generate RNA for Northern analysis.
Analysis of differentiation arrest induced by heterologous oncoproteins in E2a-Pbx1-ER expressing cells. The ECoM cells provide a system in which to dissect the mechanisms of action of oncogenes. Heterologous oncoproteins were introduced into ECoM-G clones by retroviral infection. Expression was verified by immunoblot assay and cells were assayed for the ability to re-establish differentiation arrest following estrogen withdrawal. AML1/ETO, PML/RARα, Hoxa9, Hoxb8 and wild type E2a-Pbx1 prevented granulocytic differentiation of specific clones permitting their continued and indefinite proliferation in the presence of GM-CSF. […]

[2] = system: PLZF/RARα ECoM-G derivatives; assay: atRA treatment of ECoM-G clones arrested in differentiation by PLZF/RARα
Protocol: as §1
Analysis of differentiation arrest induced by heterologous oncoproteins in E2a-Pbx1-ER expressing cells. The ECoM cells provide a system in which to dissect the mechanisms of action of oncogenes. Heterologous oncoproteins were introduced into ECoM-G clones by retroviral infection.

CC1=C(/C=C/C(C)=C/C=C/C(C)=C/C(=O)O)C(C)(C)CCC1 [atRA, all-trans-RA]
response to atRA (parental ECoM-G cells): completely unresponsive
response to atRA (proliferation, differentiation) [1]: stopped proliferating and underwent quantitative granulocytic differentiation
response to atRA (proliferation, differentiation) [2]: stopped proliferating and underwent quantitative granulocytic differentiation
